{"source": "patent US7285555B2", "about": "“6-aryl-7-halo-imidazo[1,2-a]pyrimidines as anticancer agents” (Wyeth Holdings Corporation, priority 2003, dated 2007)", "key": {"KB-V1 cells": {"tested_on": "KB-V1 cells", "test": "MTS cytotoxicity test procedure with KB-V1 cells", "type": "cell-based, human", "details": "MTS assay", "from_the_text": "(§1) Human cancer cell lines, unless otherwise noted, are obtained from the American Type Culture Collection (Rockville, Md.). The following drug-sensitive parental cell lines, and their derived drug-resistant counterparts, are obtained from the originators as listed: (a) S1 (parental line from a subclone of human colon carcinoma line LS174T) and derived S1-M1-3.2 (herein called S1-M1) which expresses the MXR drug transporter protein, are provided by Dr. L. Greenberger, Wyeth Research (Rabindran, S. K., He, H., Singh, M., Brown, E., Collins, K. I., Annable, T., and Greenberger, L. M. Reversal of a novel multidrug resistance mechanism in human colon carcinoma cells by fumitremorgin C. Cancer Res., 58: 5850-5858,1998); (b) parental HL-60 human promyelocytic leukemia line and derived HL-60/ADR, which expresses the MRP1 drug transporter protein, are provided by Dr. M. Center, University of Kansas (McGrath, T., and Center, M. S. Adriamycin resistance in HL60 cells in the absence of detectable P-glycoprotein. Biochem. Biophys. […] J. Biol. Chem., 261: 7762-7770, 1986) via Dr. L. Greenberger, Wyeth Research.\n(§2) The MTS assay, which is sold in kit form by Promega (Madison, Wis.; CellTiter 96 AQueous Non-Radioactive Cell Proliferation Assay), is based on the conversion by viable cells, but not by dead cells, of the tetrazolium salt, MTS (3-(4,5-dimethylthiazol-2-yl)-5-(3-carboxymethoxyphenyl)-2-(4-sulphophenyl)-2H-tetrazolium, inner salt), into a water-soluble colored formazan which is detected by spectrophotometry. Compounds are tested at nine concentrations, in order to determine IC50 values. For the test procedure, cells are harvested by trypsinization (or, in the case of non-adherent cells, by simple resuspension), washed, counted and distributed to wells of 96-well flat-bottom microtiter plates at 1000 cells per well in 200 μL of medium. […]\n(§3) After three days of culture with test compounds (day 5 overall), the MTS assay is done on all wells of the experimental plates. The absorbance values of the quadruplicate sample wells are averaged and divided by the average of the “time 0” values. […]"}, "HL-60 cells": {"tested_on": "HL-60 cells", "test": "MTS cytotoxicity test procedure with HL-60 cells", "type": "cell-based", "details": "Homo sapiens, MTS assay, means of 2 independent experiments", "from_the_text": "(§4) Human cancer cell lines, unless otherwise noted, are obtained from the American Type Culture Collection (Rockville, Md.). […]\nas §2, with “Compounds are tested at nine concentrations, in order to determine IC50 values.” left out\nas §3"}, "S1 cells": {"tested_on": "S1 cells", "test": "MTS cytotoxicity test procedure with S1 cells", "type": "cell-based", "details": "Homo sapiens, MTS assay, means of 2 independent experiments", "from_the_text": "as §4\nas §2, with “Compounds are tested at nine concentrations, in order to determine IC50 values.” left out\nas §3"}, "KB-8-5 cells": {"tested_on": "KB-8-5 cells", "test": "SRB cytotoxicity test procedure with KB-8-5 cells", "type": "cell-based, human", "details": "SRB assay", "from_the_text": "as §1\nThe SRB standard cytotoxicity assay is done according to previously reported methods (Discafani, C. M., Carroll, M. L., Floyd Jr., M. B. F., Hollander, I. J., Husain, Z., Johnson, B. D., Kitchen, D., May, M. K., Malo, M. S., Minnick Jr., A. A., Nilakantan, R., Shen, R., Wang Y-F., Wissner, A., Greenberger, L. M. Irreversible inhibition of epidermal growth factor receptor tyrosine kinase with in vivo activity by N-[4-[3-bromophenyl)amino]-6-quinaxolinyl]-2-butynamide (CL-387,785). Biochem. Pharmacol., 57: 917-925, 1999). Briefly, cells are plated in 100 μL of medium in 96-well flat-bottom microtiter plates in the morning of day 1 and allowed to adhere to the plates for 2-6 hr. Compounds are serially diluted into medium as 2× stocks and 100 μL of these stocks are added to cells in duplicate. Compounds are incubated with cells for 3 days. At the end of the incubation period the sulforhodamine B (SRB) assay, which measures protein content as an assessment of cell survival, is performed as described previously (Skehan, P., Storeng, R., Scudiero, D., Monks, A., McMahon, J., Vistica, D., Warren, J. T., Bokesch, H., Kenney, S., Boyd, M. R. New calorimetric cytotoxicity assay for anticancer-drug screening. J. Natl. Cancer Inst., 82:1107-1112, 1990) with some modifications. Medium is gently decanted from plates and replaced with 200 μL per well of cold serum-free medium containing a final concentration of 10% trichloroacetic acid. The plates are incubated for 1 hr at 40, washed 5 times in cold distilled water, and air-dried overnight. […] Absorbance is read on a Victor V multi-label plate reader (Perkin Elmer, Gaithersburg, Md.). […]"}}, "data": [{"smiles": "CN(C)CCCOc1cc(F)c(-c2c(Cl)nc3nccn3c2C2CCCCCC2)c(F)c1", "note": "[Example 6, 3-[4-(7-Chloro-5-cycloheptylimidazo[1,2-a]pyrimidin-6-yl)-3,5-difluorophenoxy]-N,N-dimethylpropan-1-amine]", "values": [{"measurement": "IC50", "setting": "KB-V1 cells; Homo sapiens, KB-V1, KB VI cells, means of 2 independent experiments", "value": 204, "unit": "nM"}, {"measurement": "Ratio VI/KB", "setting": "KB-V1 cells; IC50 on KB VI cells/IC50 on KB cells", "value": 4.6}, {"measurement": "IC50", "setting": "HL-60 cells", "value": 53, "unit": "nM"}, {"measurement": "IC50", "setting": "S1 cells", "value": 63, "unit": "nM"}]}, {"smiles": "CC(=O)O[C@H]1C(=O)[C@@]2(C)[C@H]([C@H](OC(=O)c3ccccc3)[C@]3(O)C[C@H](OC(=O)[C@H](O)[C@@H](NC(=O)c4ccccc4)c4ccccc4)C(C)=C1C3(C)C)[C@]1(OC(C)=O)CO[C@@H]1C[C@@H]2O", "note": "[Paclitaxel, reference compound]", "values": [{"measurement": "IC50", "setting": "KB-8-5 cells; Homo sapiens, KB 8.5 cells, means of 2 independent experiments", "value": 34, "unit": "nM"}, {"measurement": "Ratio 8.5/KB", "setting": "KB-8-5 cells; IC50 on KB 8.5 cells/IC50 on KB cells", "value": 16}]}]}
